Patent US9289496B2, “Lipid dipeptide and gel” (Nissan Chemical Industries, Ltd., priority 2008, dated 2016)
Entries after “also recorded” stand apart in the source; their conditions may differ. Residues, ends and D or L forms follow the SMILES beside them.

Experiments:
[1] = Evaluation of gelation of lipid peptides with pure water; assay type: physicochemical
Procedure: Each of the lipid peptides synthesized in Examples 1, 6, 7, 8, and 10 was placed in a sample tube. Pure water (without metals and ions) was added so that a solution would have a lipid peptide concentration of 0.25 or 0.5% (w/v) (w means mass (g), and v means volume (mL)). The mixture was heated at 90° C. or more to dissolve the lipid peptide, and then allowed to cool.

[2] = Evaluation of gelation of lipid peptides with phosphate buffer; assay type: physicochemical
Procedure: Each of the lipid peptides synthesized in Examples 3 to 10 and Example 14 was placed in a sample tube. Each of three phosphate buffers (PBS) (pH=2.6, 7.4, or 10) was added so that a solution would have a lipid peptide concentration of 0.25 or 0.5% (w/v) (conditions A to F). Then, the mixture was heated at 90° C. or more to dissolve the lipid peptide, and then allowed to cool.

[3] = Evaluation of gelation of N-palmitoyl-Gly-His.TFA salt with various solutions; assay type: physicochemical
Procedure: Each N-palmitoyl-Gly-His trifluoroacetate synthesized in Examples 1 to 3 was placed in a screw tube (Maruemu No. 1, manufactured by Maruemu Corp.). Each of various solutions shown in Table 3 was added so as to have an N-palmitoyl-Gly-His.TFA salt (also called Pal-GH (TFA)) concentration of 0.5 or 1% (w/v). The mixture was heated at 100° C. with a constant temperature heat block (manufactured by Nippon Genetics Co., Ltd.), and then allowed at room temperature.

[4] = Gel sheet formation and stability of gel on water immersion; assay type: physicochemical; conditions: 72 hours
Procedure: Into a screw tube (Maruemu No. 3, manufactured by Maruemu Corp.), 3 mg of N-palmitoyl-Gly-His (TFA) prepared in Example 1 was placed, and 0.6 ml of Japanese Pharmacopoeia purified water (Kyoei Pharmaceutical Industries, Ltd.) was added into the screw tube so as to have a concentration of 0.5% (w/v). The whole was heated at 105° C. for 5 minutes, and then allowed to stand at room temperature to prepare a gel of 0.5% N-palmitoyl-Gly-His (TFA).
To the gel, 2 ml of Japanese Pharmacopoeia purified water (Kyoei Pharmaceutical Industries, Ltd.) was further added and sheet formation was observed from a wide view for 72 hours.
Into a screw tube (Maruemu No. 3, manufactured by Maruemu Corp.), 9.1 mg of N-palmitoyl-Gly-His.TFA salt prepared in Example 1 was placed, and 0.91 ml of Japanese Pharmacopoeia purified water (Kyoei Pharmaceutical Industries, Ltd.) and 0.91 ml of glycerin (Junsei Chemical Co., Ltd.) were added into the screw tube so as to have a concentration of 0.5% (w/v). The whole was heated at 105° C. for 5 minutes, and then allowed to stand at room temperature to prepare a gel of 0.5% N-palmitoyl-Gly-His.TFA salt in a glycerin solution.
Into the gel, 2 ml of Japanese Pharmacopoeia purified water (Kyoei Pharmaceutical Industries, Ltd.) was further added and sheet formation was observed from a wide view for 72 hours.
Into a screw tube (Maruemu No. 3, manufactured by Maruemu Corp.), 4.6 mg of N-palmitoyl-Gly-His.TFA salt prepared in Example 1 was placed, and 0.46 ml of glycerin was added into the screw tube so as to have a concentration of 1% (w/v). The whole was heated at 105° C. for 5 minutes, and then allowed to stand at room temperature to prepare a gel of 1% N-palmitoyl-Gly-His.TFA salt in glycerin.
(§1) Each of the 50.4 mg of N-palmitoyl-Gly-His.TFA salt prepared in Examples 1 to 3 was placed into a screw tube (Maruemu No. 7, manufactured by Maruemu Corp.). Into the screw tube, 1 ml of polyethylene glycol 400 (Wako Pure Chemical Industries, Ltd.), 1.5 ml of ethanol, and 8 ml of 70% glycerin (Junsei Chemical Co.) in water were added so as to have an N-palmitoyl-Gly-His TFA salt concentration of 0.5% (w/v). The mixture was heated with a dry bath incubator (manufactured by First Gene) (105° C., for 8 minutes), and then allowed to stand at room temperature to form a gel.
Into the gel, 20 ml of Japanese Pharmacopoeia purified water (Kyoei Pharmaceutical Industries, Ltd.) was further added and whether sheet formation occurred or not was observed from a wide view for 72 hours.
as §1, with “the 52.5” for “the 50.4”, “was added” for “was placed”, “tube, 0.5” for “tube, 1”, “Ltd.), 1” for “Ltd.), 1.5”, “an N-palmitoyl-Gly-His.TFA” for “an N-palmitoyl-Gly-His TFA”
(§2) Each of the 50.2 mg of palmitoyl-Gly-His.TFA salt prepared in Examples 1 to 3 was placed into a screw tube (Maruemu No. 7, manufactured by Maruemu Corp.) together with 104.7 mg of indomethacin and 220 mg of I-menthol. Into the screw tube, 0.5 ml of polyethylene glycol 400 (Wako Pure Chemical Industries, Ltd.), 1.5 ml of ethanol, 8 ml of 70% glycerin (Junsei Chemical Co., Ltd.) in water were added so as to have an N-palmitoyl-Gly-His.TFA salt concentration of 0.5% (w/v). […] The texture of the gel was smooth and cool.
After ascertainment of the gel formation, the gel was allowed to stand at room temperature for 45 days. Then, 20 ml of Japanese Pharmacopoeia purified water (Kyoei Pharmaceutical Industries, Ltd.) was added and sheet formation was observed from a wide view for 72 hours. […]

[5] = Gel formation in glycerin, polyethylene glycol 400 and ethanol medium; assay type: physicochemical; conditions: 8 ml 70% glycerin in water
Procedure: as §1
as §1, with “the 52.5” for “the 50.4”, “was added” for “was placed”, “tube, 0.5” for “tube, 1”, “Ltd.), 1” for “Ltd.), 1.5”, “an N-palmitoyl-Gly-His.TFA” for “an N-palmitoyl-Gly-His TFA”
as §2

[6] = background art; cited from earlier work
[7] = acidic region (pH=2.6), concentration 0.25%
[8] = acidic region (pH=2.6), concentration 0.5%
[9] = condition A: phosphate buffer pH = 2.6, 0.5% (w/v)
[10] = condition B: phosphate buffer pH = 2.6, 0.25% (w/v)
[11] = condition C: phosphate buffer pH-7.4, 0.5% (w/v)
[12] = condition D: phosphate buffer pH-7.4, 0.25% (w/v)
[13] = condition E: phosphate buffer pH = 10, 0.5% (w/v)

Row | SMILES | Gelation ([1]; lipid peptide 0.25% (w/v)) | Gelation ([1]; lipid peptide 0.50% (w/v)) | Gel formation [2, 7] | Gel formation [2, 8] | Gelation [2, 9] | Gelation [2, 10] | Gelation [2, 11] | Gelation [2, 12] | Gelation [2, 13] | further results
1 | CCCCCCCCCCCCCCCC(=O)NCC(=O)N[C@@H](Cc1c[nH]cn1)C(=O)O.O=C(O)C(F)(F)F [Example 1, N-palmitoyl-Gly-His.TFA salt] (HELM PEPTIDE1{[CCCCCCCCCCCCCCCC(=O)[*:2]].G.H}$$$$V2.0) | ◯ | ◯ | formed gels | formed gels | ◯ | ◯ | ◯ | ◯ | ◯ | Gel state ([3]; 50% 1,3-butanediol aqueous solution, 0.5% (w/v)): White gel; Gel state ([3]; 50% glycerin aqueous solution, 0.5% (w/v)): White gel; Gel state ([3]; 50% liquid paraffin aqueous solution, 0.5% (w/v)): White gel; Gel state ([3]; 50% polyethylene glycol 400 aqueous solution, 0.5% (w/v)): White gel; Gel state ([3]; 50% propylene glycol aqueous solution, 0.5% (w/v)): White gel; Gel state ([3]; 70% glycerin aqueous solution, 0.5% (w/v)): Transparent gel; Gel state ([3]; Glycerin, 1.0% (w/v)): Transparent gel; Gel state ([3]; Polyethylene glycol 400, 1.0% (w/v)): Transparent gel; Gel behaviour on immersion in purified water, sheet formation ([4]; 0.5% (w/v) gel in 0.5 ml polyethylene glycol 400, 1 ml ethanol, 8 ml 70% glycerin, 20 ml water added): not dissolved during water immersion and the formation of a sheet-shaped gel was observed; Gel behaviour on immersion in purified water, sheet formation ([4]; 0.5% (w/v) gel in 1 ml polyethylene glycol 400, 1.5 ml ethanol, 8 ml 70% glycerin, 20 ml water added): not dissolved during water immersion and the formation of a sheet-shaped gel was observed; Gel behaviour on immersion in purified water, sheet formation ([4]; 0.5% (w/v) gel in glycerin solution (0.91 ml water + 0.91 ml glycerin), 2 ml water added): not dissolved during water immersion and the formation of a sheet-shaped gel was observed; Gel behaviour on immersion in purified water, sheet formation ([4]; 0.5% (w/v) gel in purified water, 2 ml water added): not dissolved during water immersion and the formation of a sheet-shaped gel was observed; also recorded: did not dissolve during water immersion and the formation of a sheet-shaped gel was observed; Gel behaviour on immersion in purified water, sheet formation ([4]; 0.5% (w/v) gel including indomethacin and l-menthol, after 45 days at room temperature, 20 ml water added): not dissolved during water immersion and the formation of a sheet-shaped gel was observed; Gel behaviour on immersion in purified water, sheet formation ([4]; 1% (w/v) gel in glycerin, 2 ml water added): not dissolved during water immersion and the formation of a sheet-shaped gel was observed; Gel formation ([5]; 0.5% (w/v) with 104.7 mg indomethacin and 220 mg l-menthol, 0.5 ml polyethylene glycol 400, 1.5 ml ethanol): pale yellow gel; Gel formation ([5]; 0.5% (w/v), 0.5 ml polyethylene glycol 400, 1 ml ethanol): form a gel; Gel formation ([5]; 0.5% (w/v), 1 ml polyethylene glycol 400, 1.5 ml ethanol): form a gel
2 | CCCCCCCCCCCCCCCC(=O)N[C@@H](Cc1c[nH]cn1)C(=O)NCC(=O)O.O=C(O)C(F)(F)F [Example 14, N-Palmitoyl-His-Gly.TFA Salt] (HELM PEPTIDE1{[CCCCCCCCCCCCCCCC(=O)[*:2]].H.G}$$$$V2.0) |  |  |  |  |  |  | ◯ | ◯ | ◯ | 
3 | CCCCCCCCCCCCCCCCCCCCCC(=O)NCC(=O)N[C@@H](Cc1c[nH]cn1)C(=O)O.O=C(O)C(F)(F)F [Example 7, N-Behenoyl-Gly-His.TFA Salt] | ◯ | ◯ |  | formed gels | ◯ |  | ◯ | ◯ | ◯ | 
4 | CCCCCCCCCCCC(=O)NCC(=O)N[C@@H](Cc1c[nH]cn1)C(=O)O.O=C(O)C(F)(F)F [Example 6, N-Lauroyl-Gly-His.TFA Salt] (HELM PEPTIDE1{[CCCCCCCCCCCC(=O)[*:2]].G.H}$$$$V2.0) | ◯ | ◯ | formed gels | formed gels | ◯ | ◯ | ◯ | ◯ | ◯ | Gel formation ([2]; basic region (pH=10), concentration 0.25%): formed a gel; Gelation ([2]; condition F: phosphate buffer pH = 10, 0.25% (w/v)): ◯
5 | CCCCCCCCCCCCCCCC(=O)N[C@@H](C)C(=O)N[C@@H](Cc1c[nH]cn1)C(=O)O.O=C(O)C(F)(F)F [Example 10, N-Palmitoyl-Ala-His.TFA salt] (HELM PEPTIDE1{[CCCCCCCCCCCCCCCC(=O)[*:2]].A.H}$$$$V2.0) | ◯ | ◯ | formed gels | formed gels | ◯ | ◯ | ◯ | ◯ | ◯ | 
6 | CCCCCCCCCCCCCC(=O)NCC(=O)N[C@@H](Cc1c[nH]cn1)C(=O)O.O=C(O)C(F)(F)F [Example 8, N-Myristoyl-Gly-His.TFA Salt] (HELM PEPTIDE1{[CCCCCCCCCCCCCC(=O)[*:2]].G.H}$$$$V2.0) | ◯ | ◯ | formed gels | formed gels | ◯ | ◯ | ◯ | ◯ | ◯ | 
7 | CCCCCCCCCCCCCCCC(=O)N[C@H](C(=O)N[C@@H](Cc1c[nH]cn1)C(=O)O)C(C)C.O=C(O)C(F)(F)F [Example 11, N-Palmitoyl-Val-His.TFA Salt] (HELM PEPTIDE1{[CCCCCCCCCCCCCCCC(=O)[*:2]].V.H}$$$$V2.0) |  |  |  |  |  |  | ◯ | ◯ | ◯ | 
8 | CCCCCCCCCCCCCCCC(=O)NCC(=O)NCC(=O)N[C@@H](Cc1c[nH]cn1)C(=O)O [palmitoyl-Gly-Gly-His] (HELM PEPTIDE1{[CCCCCCCCCCCCCCCC(=O)[*:2]].G.G.H}$$$$V2.0) |  |  |  |  |  |  |  |  |  | gelation properties [6]: has gelation properties
